Biological target: T1, RSK2 (Homo sapiens, UniProt P51812)
T1 construct: gene RPS6KA3
Test: FRET kinase assay (Thermo Fisher LanthaScreen / Z'-LYTE)
Format: biochemical

T1 sequence (P51812 whole entry): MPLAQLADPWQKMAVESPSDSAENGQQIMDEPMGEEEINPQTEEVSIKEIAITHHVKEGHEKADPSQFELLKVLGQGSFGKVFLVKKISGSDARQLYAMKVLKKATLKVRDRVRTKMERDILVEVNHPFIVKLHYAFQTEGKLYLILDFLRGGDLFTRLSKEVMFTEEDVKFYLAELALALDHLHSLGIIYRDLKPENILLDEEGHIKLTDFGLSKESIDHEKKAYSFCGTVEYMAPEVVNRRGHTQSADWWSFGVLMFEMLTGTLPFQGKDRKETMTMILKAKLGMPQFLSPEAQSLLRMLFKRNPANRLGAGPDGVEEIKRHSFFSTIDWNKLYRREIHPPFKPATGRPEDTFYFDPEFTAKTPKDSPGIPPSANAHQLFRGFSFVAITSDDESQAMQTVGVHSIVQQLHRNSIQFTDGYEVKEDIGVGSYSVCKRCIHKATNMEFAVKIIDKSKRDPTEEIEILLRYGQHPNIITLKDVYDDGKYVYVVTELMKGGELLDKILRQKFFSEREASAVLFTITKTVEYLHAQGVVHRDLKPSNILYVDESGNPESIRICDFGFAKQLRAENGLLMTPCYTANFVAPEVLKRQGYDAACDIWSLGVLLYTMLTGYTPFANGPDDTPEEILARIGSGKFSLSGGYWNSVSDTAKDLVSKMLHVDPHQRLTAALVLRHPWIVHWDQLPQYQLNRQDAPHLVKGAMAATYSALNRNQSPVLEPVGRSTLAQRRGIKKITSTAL

IC50: 45.5 nM
SMILES: Cc1ccc2[nH]c(=O)c(-c3cnc(=O)[nH]n3)c(O)c2c1 [NSYSU-115]
